Data: patent US20230041743A1, “1,8-NAPHTHYRIDIN-2-ONE COMPOUNDS FOR THE TREATMENT OF AUTOIMMUNE DISEASE” (Hoffmann-La Roche Inc., priority 2019, published 2023)
pIC50: −log10 of the molar value.

Target: T1, human TLR7 (Homo sapiens, UniProt Q9NYK1)
T1 construct: host or cells: HEK293 (HEK-Blue hTLR7)
T1 sequence (Q9NYK1 27-1049): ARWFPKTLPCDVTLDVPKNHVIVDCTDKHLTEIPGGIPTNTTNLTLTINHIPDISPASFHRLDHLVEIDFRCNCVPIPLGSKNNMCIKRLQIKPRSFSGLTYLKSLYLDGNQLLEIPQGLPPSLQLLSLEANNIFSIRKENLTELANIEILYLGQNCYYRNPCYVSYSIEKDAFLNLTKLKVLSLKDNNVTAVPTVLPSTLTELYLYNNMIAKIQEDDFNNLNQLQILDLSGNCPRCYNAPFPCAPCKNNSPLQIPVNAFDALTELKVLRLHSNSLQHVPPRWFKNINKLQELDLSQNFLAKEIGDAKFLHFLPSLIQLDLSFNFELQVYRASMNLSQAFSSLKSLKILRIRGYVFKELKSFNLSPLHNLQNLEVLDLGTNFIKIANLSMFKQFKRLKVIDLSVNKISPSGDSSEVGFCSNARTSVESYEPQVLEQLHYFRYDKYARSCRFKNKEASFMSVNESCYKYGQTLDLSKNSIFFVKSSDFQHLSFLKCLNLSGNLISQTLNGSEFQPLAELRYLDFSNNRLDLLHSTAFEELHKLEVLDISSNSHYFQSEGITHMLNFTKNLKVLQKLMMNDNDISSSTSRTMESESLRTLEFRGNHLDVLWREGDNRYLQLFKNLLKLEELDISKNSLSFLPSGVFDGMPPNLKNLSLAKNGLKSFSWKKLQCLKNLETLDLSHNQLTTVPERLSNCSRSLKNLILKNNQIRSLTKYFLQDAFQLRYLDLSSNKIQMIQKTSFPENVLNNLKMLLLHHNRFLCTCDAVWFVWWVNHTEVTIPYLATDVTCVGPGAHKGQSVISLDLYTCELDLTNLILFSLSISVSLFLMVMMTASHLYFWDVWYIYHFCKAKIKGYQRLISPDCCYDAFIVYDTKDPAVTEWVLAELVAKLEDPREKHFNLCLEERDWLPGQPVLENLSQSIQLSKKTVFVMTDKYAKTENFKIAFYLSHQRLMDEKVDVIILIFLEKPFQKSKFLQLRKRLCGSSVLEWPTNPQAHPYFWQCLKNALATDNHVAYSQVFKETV
Assay: HEK293-Blue-hTLR-7 cells assay (SEAP reporter, R848 stimulation)
Type: cell-based
Details: HEK293-Blue-hTLR7 cells, R848 ligand, 20 hrs incubation; read-out: HEK/hTLR7 IC50
Excerpt: HEK293-Blue-hTLR-7 Cells Assay:
A stable HEK293-Blue-hTLR-7 cell line was purchased from InvivoGen (Cat. #: hkb-htlr7, San Diego, Calif., USA). These cells were originally designed for studying the stimulation of human TLR7 by monitoring the activation of NF-κB. A SEAP (secreted embryonic alkaline phosphatase) reporter gene was placed under the control of the IFN-β minimal promoter fused to five NF-κB and AP-1-binding sites. The SEAP was induced by activating NF-κB and AP-1 via stimulating HEK-Blue hTLR7 cells with TLR7 ligands. Therefore the reporter expression was declined by TLR7 antagonist under the stimulation of a ligand, such as R848 (Resiquimod), for incubation of 20 hrs. The cell culture supernatant SEAP reporter activity was determined using QUANTI-Blue™ kit (Cat. #: rep-qb1, Invivogen, San Diego, Ca, USA) at a wavelength of 640 nm, a detection medium that turns purple or blue in the presence of alkaline phosphatase.
HEK293-Blue-hTLR7 cells were incubated at a density of 250,000-450,000 cells/mL in a volume of 170 μL in a 96-well plate in Dulbecco's Modified Eagle's medium (DMEM) containing 4.5 g/L glucose, 50 U/mL penicillin, […], […], 2 mM L-glutamine, 10% (v/v) heat-inactivated fetal bovine serum with addition of 20 μL test compound in a serial dilution in the presence of final DMSO at 1% and 10 μL of 20 uM R848 in above DMEM, perform incubation under 37° C. in a CO2 incubator for 20 hrs. Then 20 μL of the supernatant from each well was incubated with 180 μL Quanti-blue substrate solution at 37° C. for 2 hrs and the absorbance was read at 620˜655 nm using a spectrophotometer. The signaling pathway that TLR7 activation leads to downstream NF-κB activation has been widely accepted, and therefore similar reporter assay was modified for evaluating TLR7 antagonist.

| SMILES | pIC50 |
| --- | --- |
| C[C@@H]1CN(c2cc(=O)n(C)c3ncccc23)C[C@@H]2c3ccc(N4C[C@@H](N)[C@@H](F)C4)cc3CN12 [Example 7, 4-[(4R,10bS)-8-[(3R,4S)-3-amino-4-fluoro-pyrrolidin-1-yl]-4-methyl-3,4,6,10b-tetrahydro-1H-pyrazino[2,1-a]isoindol-2-yl]-1-methyl-1,8-naphthyridin-2-one] | 7.36 |
| CO[C@@H]1CN(c2ccc3c(c2)CN2[C@H](C)CN(c4cc(=O)n(C)c5ncccc45)C[C@H]32)C[C@H]1N [Example 5, 4-[(4R,10bS)-8-[(3R,4R)-3-amino-4-methoxy-pyrrolidin-1-yl]-4-methyl-3,4,6,10b-tetrahydro-1H-pyrazino[2,1-a]isoindol-2-yl]-1-methyl-1,8-naphthyridin-2-one] | 7.42 |
| C[C@@H]1CN(c2cc(=O)n(C)c3ncccc23)C[C@@H]2c3ccc(N4CC5(CNCCO5)C4)cc3CN12 [Example 3, 4-[(4R,10bS)-4-methyl-8-(5-oxa-2,8-diazaspiro[3.5]nonan-2-yl)-3,4,6,10b-tetrahydro-1H-pyrazino[2,1-a]isoindol-2-yl]-1-methyl-1,8-naphthyridin-2-one] | 7.68 |
| COC[C@@H]1CNCCN1c1ccc2c(c1)CN1[C@H](C)CN(c3cc(=O)n(C)c4ncccc34)C[C@H]21 [Example 10, 4-[(4R,10bS)-8-[(2S)-2-(methoxymethyl)piperazin-1-yl]-4-methyl-3,4,6,10b-tetrahydro-1H-pyrazino[2,1-a]isoindol-2-yl]-1-methyl-1,8-naphthyridin-2-one] | 8.04 |
| C[C@@H]1CN(c2cc(=O)n(C)c3ncccc23)C[C@@H]2c3ccc(N4C[C@H]5NCCO[C@@H]5C4)cc3CN12 [Example 6, 4-[(4R,10bS)-8-[(4aR,7aR)-3,4,4a,5,7,7a-hexahydro-2H-pyrrolo[3,4-b][1,4]oxazin-6-yl]-4-methyl-3,4,6,10b-tetrahydro-1H-pyrazino[2,1-a]isoindol-2-yl]-1-methyl-1,8-naphthyridin-2-one] | 7.21 |
| C[C@@H]1CN(c2cc(=O)n(C)c3ncccc23)C[C@@H]2c3ccc(N4CC[C@@](C)(N)C4)cc3CN12 [Example 4, 4-[(4R,10bS)-8-[(3R)-3-amino-3-methyl-pyrrolidin-1-yl]-4-methyl-3,4,6,10b-tetrahydro-1H-pyrazino[2,1-a]isoindol-2-yl]-1-methyl-1,8-naphthyridin-2-one] | 7.40 |
| CO[C@H]1CN(c2ccc3c(c2)CN2[C@H](C)CN(c4cc(=O)n(C)c5ncccc45)C[C@H]32)CC[C@@H]1N [Example 8, 4-[(4R,10bS)-8-[(3S,4S)-4-amino-3-methoxy-1-piperidyl]-4-methyl-3,4,6,10b-tetrahydro-1H-pyrazino[2,1-a]isoindol-2-yl]-1-methyl-1,8-naphthyridin-2-one] | 7.71 |
| C[C@@H]1CN(c2cc(=O)n(C)c3ncccc23)C[C@@H]2c3ccc(N4CC(C)(N)C4)cc3CN12 [Example 1, 4-[(4R,10bS)-8-(3-amino-3-methyl-azetidin-1-yl)-4-methyl-3,4,6,10b-tetrahydro-1H-pyrazino[2,1-a]isoindol-2-yl]-1-methyl-1,8-naphthyridin-2-one] | 7.52 |

Second part, the molecule after the results:

| pIC50 | SMILES |
| --- | --- |
| 8.19 | C[C@@H]1CN(c2ccc3c(c2)CN2[C@H](C)CN(c4cc(=O)n(C)c5ncccc45)C[C@H]32)CCN1 [Example 14, 4-[(4R,10bS)-4-methyl-8-[(3R)-3-methylpiperazin-1-yl]-3,4,6,10b-tetrahydro-1H-pyrazino[2,1-a]isoindol-2-yl]-1-methyl-1,8-naphthyridin-2-one] |
| 7.28 | C[C@@H]1CN(c2cc(=O)n(C)c3ncccc23)C[C@@H]2c3ccc(N4C[C@H]5C[C@@H]4CN5)cc3CN12 [Example 20, 4-[(4R,10bS)-8-[(1R,4R)-2,5-diazabicyclo[2.2.1]heptan-2-yl]-4-methyl-3,4,6,10b-tetrahydro-1H-pyrazino[2,1-a]isoindol-2-yl]-1-methyl-1,8-naphthyridin-2-one] |
| 8.01 | C[C@@H]1CN(c2cc(=O)n(C)c3ncccc23)C[C@@H]2c3ccc(N4CCC(C)(N)CC4)cc3CN12 [Example 18, 4-[(4R,10bS)-8-(4-amino-4-methyl-1-piperidyl)-4-methyl-3,4,6,10b-tetrahydro-1H-pyrazino[2,1-a]isoindol-2-yl]-1-methyl-1,8-naphthyridin-2-one] |
| 7.92 | C[C@@H]1CN(c2cc(=O)n(C)c3ncccc23)C[C@@H]2c3ccc(N4CCC[C@](C)(N)C4)cc3CN12 [Example 15, 4-[(4R,10bS)-8-[(3S)-3-amino-3-methyl-1-piperidyl]-4-methyl-3,4,6,10b-tetrahydro-1H-pyrazino[2,1-a]isoindol-2-yl]-1-methyl-1,8-naphthyridin-2-one] |
| 7.52 | C[C@@H]1CN(c2cc(=O)n(C)c3ncccc23)C[C@@H]2c3ccc(N4CCOC5(CNC5)C4)cc3CN12 [Example 11, 4-[(4R,10bS)-4-methyl-8-(5-oxa-2,8-diazaspiro[3.5]nonan-8-yl)-3,4,6,10b-tetrahydro-1H-pyrazino[2,1-a]isoindol-2-yl]-1-methyl-1,8-naphthyridin-2-one] |
| 7.81 | C[C@@H]1CN(c2cc(=O)n(C)c3ncccc23)C[C@@H]2c3ccc(N4C[C@@H]5C[C@H]4CN5)cc3CN12 [Example 19, 4-[(4R,10bS)-8-[(1S,4S)-2,5-diazabicyclo[2.2.1]heptan-2-yl]-4-methyl-3,4,6,10b-tetrahydro-1H-pyrazino[2,1-a]isoindol-2-yl]-1-methyl-1,8-naphthyridin-2-one] |
| 7.45 | C[C@@H]1CN(c2cc(=O)n(C)c3ncccc23)C[C@@H]2c3ccc(N4CCOC[C@H](N)C4)cc3CN12 [Example 22, 4-[(4R,10bS)-8-[(6R)-6-amino-1,4-oxazepan-4-yl]-4-methyl-3,4,6,10b-tetrahydro-1H-pyrazino[2,1-a]isoindol-2-yl]-1-methyl-1,8-naphthyridin-2-one] |
| 8.55 | C[C@@H]1CNCCN1c1ccc2c(c1)CN1[C@H](C)CN(c3cc(=O)n(C)c4ncccc34)C[C@H]21 [Example 17, 4-[(4R,10bS)-4-methyl-8-[(2R)-2-methylpiperazin-1-yl]-3,4,6,10b-tetrahydro-1H-pyrazino[2,1-a]isoindol-2-yl]-1-methyl-1,8-naphthyridin-2-one] |
| 8.00 | C[C@@H]1CN(c2cc(=O)n(C)c3ncccc23)C[C@@H]2c3ccc([C@H]4CC[C@@H](N5CCOCC5)CC4)cc3CN12 [Example 27B, 4-[(4R,10bS)-4-methyl-8-(cis-4-morpholinocyclohexyl)-3,4,6,10b-tetrahydro-1H-pyrazino[2,1-a]isoindol-2-yl]-1-methyl-1,8-naphthyridin-2-one] |
| 8.15 | C[C@@H]1CN(c2cc(=O)n(C)c3ncccc23)C[C@@H]2c3ccc([C@H]4CC[C@H](N5CCOCC5)CC4)cc3CN12 [Example 27A, 4-[(4R,10bS)-4-methyl-8-(trans-4-morpholinocyclohexyl)-3,4,6,10b-tetrahydro-1H-pyrazino[2,1-a]isoindol-2-yl]-1-methyl-1,8-naphthyridin-2-one] |
| 7.07 | CCn1c(=O)cc(N2C[C@@H](C)N3Cc4cc(N5C[C@@H](N)[C@H](OC)C5)ccc4[C@H]3C2)c2cccnc21 [Example 29, 4-[(4R,10bS)-8-[(3R,4R)-3-amino-4-methoxy-pyrrolidin-1-yl]-4-methyl-3,4,6,10b-tetrahydro-1H-pyrazino[2,1-a]isoindol-2-yl]-1-ethyl-1,8-naphthyridin-2-one] |
